The values below come from patent US8580525B2, “Methods of screening for LTRPC7 modulators” (The Queen's Medical Center, priority 2000, dated 2013).

Type in all cases: cell-based
For assay [1], the target named is T1, LTRPC7 (Mus musculus, UniProt Q923J1).
T1 construct: expressed in transfected cells
Description: Equimolar substitution of 10 mM Ca^2+ by other divalent metal ions, whole-cell patch-clamp. The note with it: 10 mM test cation replacing 10 mM Ca^2+, HEK-293 over-expressing LTRPC7; for effect on outward current / effect on inward current: 60 s; for effect on outward current: +80 mV; for effect on inward current / increase in inward current compared to Ca^2+: -80 mV; for increase in inward current compared to Ca^2+: no Mg^2+. As to the method: (§1) For patch-clamp experiments, cells grown on glass coverslips were transferred to the recording chamber and kept in a standard modified Ringer's solution of the following composition (in mM): NaCl 145, KCl 2.8, CsCl 10, CaCl2 1, MgCl2 2, glucose 10, Hepes.NaOH 10, pH 7.2. In some experiments, nominally Ca^2+ and/or Mg^2+-free extracellular solutions or isotonic Ca^2+ solutions (120 mM CaCl2) were applied by pressure ejection from wide-tipped pipettes. Intracellular pipette-filling solutions contained (in mM): Cs-glutamate 145, NaCl 8, MgCl2 1, Cs-BAPTA 10, pH 7.2 adjusted with CsOH. In some experiments, Cs-glutamate was replaced equimolarly by K-glutamate or N-methyl-D-glucamine-chloride. Patch-clamp experiments were performed in the tight-seal whole-cell configuration at 21-25° C. High-resolution current recordings were acquired by a computer-based patch-clamp amplifier system (EPC-9, HEKA, Lambrecht, Germany). Sylgard-coated patch pipettes had resistances between 2-4 M after filling with the standard intracellular solution. Immediately following establishment of the whole-cell configuration, voltage ramps of 50 ms duration spanning the voltage range of −100 to +100 mV were delivered from a holding potential of 0 mV at a rate of 0.5 Hz over a period of 200 to 400 seconds. All voltages were corrected for a liquid junction potential of 10 mV between external and internal solutions when internal solutions contained glutamate. Currents were filtered at 2.3 kHz and digitized at 100 μs intervals. Capacitive currents and series resistance were determined and corrected before each voltage ramp using the automatic capacitance compensation of the EPC-9. The low-resolution temporal development of currents at a given potential was extracted from individual ramp current records by measuring the current amplitudes at voltages of −80 mV or +80 mV.
LTRPC7 represents an ion channel that is selective for divalent cations at negative membrane potentials and its activity is regulated by intracellular levels of Mg.nucleotides (Nadler et al., 2001). Although the channel readily permeates monovalent ions upon removal of all divalent ions, inward currents carried by LTRPC7 under physiological conditions are largely carried by the dominant extracellular ion species Ca^2+ and Mg^2+. Ion currents carried by LTRPC7 have therefore been designated MagNuM (for Magnesium.Nucleotide-regulated Metal ion currents). In order to assess the permeation properties of LTRPC7 for other divalent ions, we measured ionic currents in substitution experiments, where 10 mM Ca^2+ was replaced with 10 mM of other divalent cations (FIG. 7). In these experiments, HEK-293 cells expressing LTRPC7 were kept in a bath solution containing 10 mM Ca^2+, without Mg^2+, and development of MagNuM was monitored by whole-cell patch-clamp as described previously (Nadler et al., 2001). When the current had reached maximal amplitude, cells were transiently exposed to an extracellular solution containing 10 mM of the test cation applied via a puffer pipette for a period of 60 s.
For orientation: Patch clamp records ionic current or voltage across a cell membrane.

Assay [2] addresses T1, LTRPC7. Description: Permeation of divalent metal ions in isotonic solutions, whole-cell patch-clamp. The note with it: for effect on outward current / effect on inward current: isotonic solution (120 mM) of test cation for 60 s, HEK-293 over-expressing LTRPC7; for effect on outward current: +80 mV; for effect on inward current: -80 mV; for permeation sequence based on peak inward currents: isotonic solutions. The protocol: as §1
The use of isotonic solutions to probe divalent cation entry through LTRPC7 avoids complications in permeation properties arising from ion-ion interactions, and therefore allows unequivocal interpretation of inward currents—maintained or increased inward currents can only be consistent with permeation of the available extracellular cation. Isotonic solutions of 120 mM of each divalent ion yielded appropriate osmolarities within 10 mOsm from the standard bath and pipette solutions. In this series of experiments, the cells were bathed in the standard external solution containing 1 mM Ca^2+ and 2 mM Mg^2+. At 200 s, when MagNuM had reached its full amplitude, isotonic solutions of each transition metal were applied for 60 s via a puffer pipette.

Assay [3] has as its target T1, LTRPC7. The assay can be described thus: Permeation and block by trivalent metal ions, whole-cell patch-clamp. Particulars: for suppression of inward or outward currents carried by LTRPC7: 10 μM (data not shown); for effect on outward currents / effect on inward currents: external solution with 10 mM Ca^2+ without Mg^2+; for effect on outward currents: +80 mV; for effect on inward currents: -80 mV. The protocol:
as §1
We next tested a series of toxic trivalent metal ions (FIG. 10), which we suspected to not permeate through LTRPC7.

Assay [4] has as its target T1, LTRPC7. The assay can be described thus: Simultaneous patch-clamp of MagNuM and fura-2 measurement of [Ca^2+]i, block by Mg.ATP. Particulars: 3 mM Mg.ATP in internal solution. From the text: Based on the above permeation data, we conclude that LTRPC7 must be viewed as a potential entry pathway for a wide variety of trace and toxic metal ions. […] We therefore performed two sets of experiments to address this issue. In the first, we assayed Ca^2+ permeation of LTRPC7 under conditions in which intracellular Ca^2+ is left unbuffered and LTRPC7 is activated or suppressed by manipulation of patch pipette [ATP]i. To this end, HEK-293 cells expressing LTRPC7 were kept in a bath solution with 2 mM each of Ca^2+ and Mg^2+ and were perfused with a Cs-glutamate-based internal solution containing 200 μM fura-2. Simultaneous development of MagNuM was monitored under whole-cell patch-clamp and delivering, from a holding potential of 0 mV, repetitive voltage ramps that spanned −100 to +100 mV over 50 ms at a rate of 0.5 Hz. When Mg.ATP was absent in the pipette, MagNuM rapidly activated, as witnessed by the increase in both inward and outward currents (FIG. 11A) as well as its characteristic current-voltage relationship (FIG. 11B). […] The progressive decrease in amplitude of hyperpolarization-driven changes in [Ca^2+]i observed under these conditions is likely due to increased Ca^2+ buffering as fura-2 equilibrates with the cytosol at its final concentration of 200 μM. […]

“Also recorded” adds a separate entry of the source.

T1 sequence (Q923J1 2-1863 limits assumed): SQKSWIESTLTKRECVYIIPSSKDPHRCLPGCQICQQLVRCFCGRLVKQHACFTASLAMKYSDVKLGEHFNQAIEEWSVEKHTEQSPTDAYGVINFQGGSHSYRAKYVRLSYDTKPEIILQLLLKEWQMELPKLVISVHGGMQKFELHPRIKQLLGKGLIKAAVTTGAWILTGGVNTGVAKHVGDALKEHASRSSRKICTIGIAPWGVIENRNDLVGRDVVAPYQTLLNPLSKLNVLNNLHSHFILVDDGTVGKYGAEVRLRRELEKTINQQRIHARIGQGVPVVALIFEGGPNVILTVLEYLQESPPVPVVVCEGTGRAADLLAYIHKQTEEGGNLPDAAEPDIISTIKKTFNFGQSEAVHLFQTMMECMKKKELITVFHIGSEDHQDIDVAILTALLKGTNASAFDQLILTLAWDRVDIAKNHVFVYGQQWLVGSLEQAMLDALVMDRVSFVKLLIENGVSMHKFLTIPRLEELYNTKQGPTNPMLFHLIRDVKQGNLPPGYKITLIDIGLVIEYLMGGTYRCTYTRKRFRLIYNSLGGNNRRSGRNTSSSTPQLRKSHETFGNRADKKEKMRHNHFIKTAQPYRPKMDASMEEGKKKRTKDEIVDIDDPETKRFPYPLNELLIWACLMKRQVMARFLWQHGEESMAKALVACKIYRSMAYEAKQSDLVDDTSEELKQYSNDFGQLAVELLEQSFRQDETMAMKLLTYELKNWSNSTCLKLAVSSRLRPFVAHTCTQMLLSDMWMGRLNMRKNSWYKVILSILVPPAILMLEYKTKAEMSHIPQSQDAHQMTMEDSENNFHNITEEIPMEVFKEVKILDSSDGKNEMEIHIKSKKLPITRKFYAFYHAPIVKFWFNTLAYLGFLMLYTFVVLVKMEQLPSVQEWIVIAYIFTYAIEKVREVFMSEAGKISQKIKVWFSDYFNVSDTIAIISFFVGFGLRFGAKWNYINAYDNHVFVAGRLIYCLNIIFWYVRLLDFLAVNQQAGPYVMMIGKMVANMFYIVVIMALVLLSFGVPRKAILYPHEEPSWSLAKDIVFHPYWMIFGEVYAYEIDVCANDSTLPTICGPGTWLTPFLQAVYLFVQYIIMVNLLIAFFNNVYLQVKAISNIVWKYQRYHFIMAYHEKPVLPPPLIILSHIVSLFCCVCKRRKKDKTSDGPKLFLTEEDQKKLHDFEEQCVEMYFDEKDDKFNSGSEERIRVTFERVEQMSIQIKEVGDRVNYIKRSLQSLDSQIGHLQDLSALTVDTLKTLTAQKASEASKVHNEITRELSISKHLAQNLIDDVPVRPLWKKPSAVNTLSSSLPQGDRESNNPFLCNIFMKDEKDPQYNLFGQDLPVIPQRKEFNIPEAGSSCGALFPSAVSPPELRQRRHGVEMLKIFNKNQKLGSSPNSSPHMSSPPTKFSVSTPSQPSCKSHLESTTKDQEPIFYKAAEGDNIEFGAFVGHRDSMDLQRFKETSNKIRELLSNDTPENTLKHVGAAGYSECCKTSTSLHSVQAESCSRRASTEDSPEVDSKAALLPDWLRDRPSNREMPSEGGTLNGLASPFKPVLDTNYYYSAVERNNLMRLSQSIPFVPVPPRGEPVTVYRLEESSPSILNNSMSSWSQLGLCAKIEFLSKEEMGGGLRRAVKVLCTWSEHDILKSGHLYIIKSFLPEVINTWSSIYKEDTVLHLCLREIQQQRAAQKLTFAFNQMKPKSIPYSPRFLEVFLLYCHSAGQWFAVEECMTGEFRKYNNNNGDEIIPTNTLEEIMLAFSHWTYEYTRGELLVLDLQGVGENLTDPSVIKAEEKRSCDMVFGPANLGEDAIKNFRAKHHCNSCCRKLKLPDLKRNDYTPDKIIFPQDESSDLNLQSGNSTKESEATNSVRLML

As for `[Ba+2]` [Ba^2+], at LTRPC7 [1], the “effect on outward current” value is “increase of the outward current” and the “effect on inward current” value is “slight to moderate increase of the inward current”. Also, on LTRPC7 [2], the “effect on outward current” value is on record as “relatively minor inhibitions of the outward current”; the “effect on inward current” value is given as “moderate increases of the inward”; the “permeation sequence based on peak inward currents” value (“permeation sequence based” below) was “more effectively transported than Ca^2+ and Mg^2+”.

As to `[Ca+2]` [Ca^2+], on LTRPC7 [2], the “effect on outward current” value was “block of the outward current” and the “effect on inward current” value was “increase of the inward”. Moreover, at LTRPC7 [2] (listed as CaCl2), the “effect on outward current” value is reported as “strongly inhibited outward currents” and the “effect on inward current” value is “enhanced inward currents”.

Turning to `[Cd+2]` [Cd^2+], the “effect on outward current” value is “increases of the outward current” on LTRPC7 [1] and “increase of the outward current” at LTRPC7 [1] (listed as Cd 2+). In addition, the entries for the “effect on inward current” value at LTRPC7 [1] and at LTRPC7 [1] (listed as Cd 2+) were “slight to moderate increases of the inward current” and “slight to moderate increase of the inward current”, respectively.

Regarding `[Co+2]` [Co^2+], at LTRPC7 [1], the “effect on outward current” value is “block of outward currents; also recorded: block of the outward current”, the “effect on inward current” value is “slight to moderate increase of the inward current” and the “increase in inward current compared to Ca^2+” value (“increase in inward current” for short) is recorded as “less than double”. Also, at LTRPC7 [2], the “effect on outward current” value is “strong block of the outward current” and the “effect on inward current” value is given as “gradual increase of the inward current”.

Consider `[Gd+3]` [Gd^3+], for which the “suppression of inward or outward currents carried by LTRPC7” value at LTRPC7 [3] is on record as “ineffective”. On LTRPC7 [3] (10 mM, Gd^3+ versus La^3+), the “relative potency as blocker of MagNuM” value is recorded as “more potent inhibitor; also recorded: more potent blocker of MagNuM”. In addition, on LTRPC7 [3] (10 mM), the “effect on outward currents” value was “completely suppressed” and the “effect on inward currents” value was “inhibited inward currents with no sign of significant permeation”.

On to `[La+3]` [La^3+], for which the “suppression of inward or outward currents carried by LTRPC7” value on LTRPC7 [3] is “ineffective”. Also, at LTRPC7 [3] (10 mM), the “effect on outward currents” value is given as “far less effective in suppressing outward currents” and the “effect on inward currents” value is “inhibited inward currents with no sign of significant permeation”.

Take `Nc1ncnc2c1ncn2[C@@H]1O[C@H](COP(=O)(O)OP(=O)([O-])OP(=O)([O-])O)[C@@H](O)[C@H]1O.[Mg+2]` [Mg.ATP]: the “[Ca^2+]i (fura-2)” value at LTRPC7 [4] (HEK-293 over-expressing LTRPC7) is reported as “remained similarly steady; also recorded: remains at steady basal levels”. Besides, the “LTRPC7 activity (MagNuM currents)” value on LTRPC7 [4] (bath 2 mM Ca^2+ and 2 mM Mg^2+) is reported as “little change in LTRPC7 activity”.

Turning to `[Mg+2]` [Mg^2+], on LTRPC7 [1], the “effect on outward current” value was “strongest block of outward currents; also recorded: block of the outward current”, the “effect on inward current” value is on record as “slight to moderate increase of the inward current” and the “increase in inward current” value is recorded as “less than double”. Moreover, the “effect on outward current” value on LTRPC7 [2] is “block of the outward current”.

With `[Ni+2]` [Ni^2+], at LTRPC7 [1], the “effect on outward current” value was “block of outward currents; also recorded: block of the outward current”, the “effect on inward current” value was “large increase of the inward current” and the “increase in inward current” value is reported as “greater than three-fold”. In addition, at LTRPC7 [2], the “effect on outward current” value is reported as “strong block of the outward current”, the “effect on inward current” value is “large increase of the inward” and the “permeation sequence based” value is “most permeant metal”.

For the compound `[Sr+2]` [Sr^2+], the “effect on outward current” value on LTRPC7 [1] is recorded as “increases of the outward current”; on LTRPC7 [1] (listed as Sr2+), “increase of the outward current”; on LTRPC7 [2], “relatively minor inhibitions of the outward current”. Also, the entries for the “effect on inward current” value at LTRPC7 [1], at LTRPC7 [1] (listed as Sr2+) and on LTRPC7 [2] were “slight to moderate increases of the inward current”, “slight to moderate increase of the inward current” and “moderate increases of the inward”, respectively. Besides, on LTRPC7 [2], the “permeation sequence based” value is “more effectively transported than Ca^2+ and Mg^2+”.

Regarding `[Zn+2]` [Zn^2+], at LTRPC7 [1], the “effect on outward current” value is “block of outward currents; also recorded: block of the outward current”, the “effect on inward current” value is listed as “large increase of the inward current” and the “increase in inward current” value is reported as “greater than three-fold”.
